#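 Cultured in 96-well plates, cells were exposed to test compound for 48 hours across five concentrations. The concentration for 50% growth inhibition is given as GI50.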 Active and inactive are the calls of the source. Cut-off read from the data, not from the text of the source: active = GI50 up to about 1.1 µM and inactive = higher. *1 amine or outer side, *2 acyl side, *3 side chain or, on linkers, in order; H or OH if unused. Where a SMILES comes first, the peptide text is derived from it. Bridges are numbered along the chain shown (N, C = ends). Roman numbers before positions name the chains, in order. [ ]: non-standard residue; d: D form. Actinocin(9to1) = Cc1c2oc3c(C)ccc(C(=O)[*:1])c3nc-2c(C(=O)[*:2])c(N)c1=O; Hyp = O=C(O)[CH]1C[CH](O)CN1; NMeV = CN[CH](C(=O)O)C(C)C; Sar = CNCC(=O)O
# How the values were obtained:
# Assay in all cases: NCI anticancer screen, dose series, 48 h
# A498 = test system: A498
# ACHN = test system: ACHN
# CCRF-CEM = test system: CCRF-CEM
# COLO 205 = test system: COLO 205
# HOP-62 = test system: HOP-62
# HT-29 = test system: HT-29
# Hs-578T = test system: Hs-578T
# MCF7 = test system: MCF7
# Malme-3M = test system: Malme-3M
# NCI-H522 = test system: NCI-H522
# NCI/ADR-RES = test system: NCI/ADR-RES
# OVCAR-3 = test system: OVCAR-3
# OVCAR-5 = test system: OVCAR-5
# RPMI-8226 = test system: RPMI-8226
# SF-268 = test system: SF-268
# SNB-19 = test system: SNB-19
# TK-10 = test system: TK-10
# U-251 = test system: U-251
# UACC-257 = test system: UACC-257
# UO-31 = test system: UO-31
SMILES,GI50 (A498),GI50 (ACHN),GI50 (CCRF-CEM),GI50 (COLO 205),GI50 (HOP-62),GI50 (HT-29),GI50 (Hs-578T),GI50 (MCF7),GI50 (Malme-3M),GI50 (NCI-H522),GI50 (NCI/ADR-RES),GI50 (OVCAR-3),GI50 (OVCAR-5),GI50 (RPMI-8226),GI50 (SF-268),GI50 (SNB-19),GI50 (TK-10),GI50 (U-251),GI50 (UACC-257),GI50 (UO-31)
CC[C@@]12CCCN3CC[C@]4(c5cccc(OC)c5N(C(C)=O)[C@@H]4CC1)[C@H]32 [ASPIDOSPERMINE],42.7 µM (inactive),> 100 µM (inactive),26.2 µM (inactive),> 100 µM (inactive),> 100 µM (inactive),21 µM (inactive),23.9 µM (inactive),63.1 µM (inactive),> 100 µM (inactive),32.3 µM (inactive),> 100 µM (inactive),> 100 µM (inactive),> 100 µM (inactive),38.2 µM (inactive),> 100 µM (inactive),> 100 µM (inactive),56.5 µM (inactive),94 µM (inactive),31.8 µM (inactive),68.5 µM (inactive)
"Cc1c2oc3c(C)ccc(C(=O)NC4C(=O)NC(C(C)C)C(=O)N5CC(O)CC5C(=O)N(C)CC(=O)N(C)C(C(C)C)C(=O)OC4C)c3nc-2c(C(=O)NC2C(=O)NC(C(C)C)C(=O)N3CC(O)CC3C(=O)N(C)CC(=O)N(C)C(C(C)C)C(=O)OC2C)c(N)c1=O (stereo not given) (I: TV[Hyp][Sar][NMeV] / II: TV[Hyp][Sar][NMeV]; ester I:1-I:C, II:1-II:C; linker I:N-II:N via Actinocin(9to1); configuration not given here)",> 1 µM (active),> 1 µM (active),> 1 µM (active),> 1 µM (active),> 1 µM (active),> 1 µM (active),> 1 µM (active),> 1 µM (active),> 1 µM (active),0.0522 µM (active),> 1 µM (active),> 1 µM (active),> 1 µM (active),> 1 µM (active),> 1 µM (active),> 1 µM (active),> 1 µM (active),> 1 µM (active),> 1 µM (active),> 1 µM (active)
CC[C@H](C)[C@H]1NC(=O)[C@@H](NC(=O)[C@@H](CC(C)C)N(C)C(=O)C2CCCN2C(=O)[C@H](C)O)[C@@H](C)OC(=O)[C@H](Cc2ccc(OC)cc2)N(C)C(=O)[C@@H]2CCCN2C(=O)[C@H](CCCCNC(=O)OCc2ccccc2)NC(=O)[C@H](C)C(=O)[C@H](C(C)C)OC(=O)C[C@@H]1O (stereo not given in full),> 25 µM (inactive),20.1 µM (inactive),6.46 µM (inactive),3.91 µM (inactive),6.65 µM (inactive),3.37 µM (inactive),1.41 µM (inactive),2.77 µM (inactive),4.89 µM (inactive),3.37 µM (inactive),> 25 µM (inactive),4.01 µM (inactive),7.28 µM (inactive),4.17 µM (inactive),3.91 µM (inactive),2.66 µM (inactive),6.97 µM (inactive),3.55 µM (inactive),2.49 µM (inactive),23.4 µM (inactive)
C=C1C(O)C2OC(=O)C(=C)C2C(OC(=O)/C(C)=C/C)CC2(C)OC2C2OC12 (stereo not given),15.3 µM (inactive),3.69 µM (inactive),12.6 µM (inactive),7.1 µM (inactive),14.5 µM (inactive),5.47 µM (inactive),20.7 µM (inactive),4.44 µM (inactive),10.3 µM (inactive),3.15 µM (inactive),7.93 µM (inactive),6.28 µM (inactive),5.89 µM (inactive),2.58 µM (inactive),4.67 µM (inactive),19.5 µM (inactive),14.4 µM (inactive),17.2 µM (inactive),15.7 µM (inactive),5.98 µM (inactive)
CCCCNCC(=O)O[C@]1(CC)C(=O)OCc2c1cc1n(c2=O)Cc2cc3ccccc3nc2-1,0.741 µM (active),0.037 µM (active),0.0127 µM (active),1.7 µM (inactive),< 0.0277 µM (active),0.838 µM (active),31.9 µM (inactive),0.0998 µM (active),2.84 µM (inactive),0.224 µM (active),0.0789 µM (active),2.16 µM (inactive),0.535 µM (active),0.385 µM (active),0.0851 µM (active),0.0542 µM (active),6.15 µM (inactive),0.0508 µM (active),0.646 µM (active),0.207 µM (active)
CCOC(=O)Nc1ccc2c(c1)N(C(=O)CCN(CC)CC)c1ccccc1S2 [ETHACIZINE],23.4 µM (inactive),29.8 µM (inactive),34.3 µM (inactive),20.5 µM (inactive),33.9 µM (inactive),17.3 µM (inactive),50.4 µM (inactive),25.3 µM (inactive),18.7 µM (inactive),65.8 µM (inactive),45.2 µM (inactive),30 µM (inactive),57.1 µM (inactive),17.9 µM (inactive),27.8 µM (inactive),47 µM (inactive),32.9 µM (inactive),26.6 µM (inactive),16.3 µM (inactive),27.5 µM (inactive)
O=c1[nH]c2cc3cccnc3c(Cl)c2nc1C(F)(F)F,19.2 µM (inactive),35.9 µM (inactive),28.1 µM (inactive),36.4 µM (inactive),29.3 µM (inactive),51.3 µM (inactive),58.1 µM (inactive),28.3 µM (inactive),77.8 µM (inactive),28.6 µM (inactive),33.3 µM (inactive),34.4 µM (inactive),> 100 µM (inactive),26.5 µM (inactive),60.7 µM (inactive),54.7 µM (inactive),68.9 µM (inactive),50.8 µM (inactive),27.1 µM (inactive),27.7 µM (inactive)
CCN(CC)CC[n+]1ccc2c(C)c3[nH]c4ccc(O)cc4c3c(C)c2c1,16.2 µM (inactive),2.64 µM (inactive),1.43 µM (inactive),3.18 µM (inactive),2.03 µM (inactive),8.45 µM (inactive),0.552 µM (active),2 µM (inactive),5.83 µM (inactive),1.96 µM (inactive),14.6 µM (inactive),14.9 µM (inactive),15.9 µM (inactive),7.31 µM (inactive),1.12 µM (active),1.21 µM (inactive),28.3 µM (inactive),1.33 µM (inactive),19.6 µM (inactive),28 µM (inactive)
COC(=O)/C=C(/C(=O)OC)c1c(C)c(C)c2c(C)cc(C)cc(C)c1-2,97.9 µM (inactive),20 µM (inactive),> 100 µM (inactive),29.4 µM (inactive),23 µM (inactive),11.6 µM (inactive),8.99 µM (inactive),25.2 µM (inactive),28.4 µM (inactive),12.2 µM (inactive),15.2 µM (inactive),22.1 µM (inactive),19.1 µM (inactive),> 100 µM (inactive),> 100 µM (inactive),58.7 µM (inactive),55.1 µM (inactive),26.9 µM (inactive),22 µM (inactive),13.6 µM (inactive)

# — ChEMBL document CHEMBL1201862, “PubChem BioAssay data set” (2004)
